Source: paper PMC8602566 (Frontiers in Oncology, 2021)

Experiments:
[1] = system: Human leukemia cell line K562; assay: MTT cell viability assay, K562; assay type: cell-based; conditions: K562, MTT, 72 h, read-out: IC50 antiproliferative activity K562
Experimental: (§1) Cell viability was measured using the 3-(4,5-dimethylthiazol-2-yl)-2,5-diphenyltetrazolium bromide (MTT) assay and was expressed as a ratio to the absorbance value at 570 nm of the control cells.

[2] = system: Human glioblastoma cell line U251; assay: MTT cell viability assay, U251; assay type: cell-based; conditions: U-251, MTT, 72 h, read-out: IC50 antiproliferative activity U251
Experimental: as §1

[3] = system: Human glioblastoma cell line U87; assay: MTT cell viability assay, U87; assay type: cell-based; conditions: MTT, 72 h, read-out: IC50 antiproliferative activity U87
Experimental: Human GBM U87 cell line was purchased from the American Type Culture Collection (ATCC). Cells were cultured in Dulbecco’s modified Eagle’s medium (DMEM) supplemented with 10% fetal bovine serum (FBS) and maintained in a 37°C, 5% CO2 incubator. After cells were routinely passaged at 2- to 3-day intervals, experiments were carried out when the cells entered exponential growth phase.
as §1

[4] = system: Human glioma cell line SHG44; assay: MTT cell viability assay, SHG44; assay type: cell-based; conditions: SHG-44, MTT, 72 h, read-out: IC50 antiproliferative activity SHG44
Experimental: as §1

[5] = system: Human glioma cell line LN229; assay: MTT cell viability assay, LN229; assay type: cell-based; conditions: LN-229, MTT, 72 h, read-out: IC50 antiproliferative activity LN229
Experimental: as §1

U87 cells = assay: Cell apoptosis assay by flow cytometry (Annexin V-FITC/PI); assay type: cell-based, Human; conditions: 10 μM, Annexin V/PI (control 3.3%)
Experimental: For apoptosis assays, 5 × 10^5 U87 cells were seeded into six-well plates for 24 h and treated with a range of concentrations of DMC-HA for 36 h. Annexin V-FITC/PI apoptosis detection kit was used to perform the apoptotic assay following the manufacturer’s instructions (Beyotime, Jiangsu, China). After treatment, 1 × 10^6 cells were washed using 1 ml binding buffer for three times, then centrifuged at 300×g and stained with 10 μl Annexin V-FITC solution at 37°C for 15 min. Before detecting, 5 μl PI solution was added to the samples, and the apoptotic cells were detected using flow cytometry (FACSCalibur BD, BD Biosciences, San Jose, CA, USA).
To further investigate the apoptotic effect of DMC-HA on GBM, we treated U87 cells with increasing concentrations of DMC-HA. After 48 h, the morphological changes of DMC-HA-treated U87 cells were observed, such as cell shrinking, rounding, and detachment (Figure 4A). […] To further confirm whether DMC-HA could induce apoptosis in U87 cells, cells were stained with Annexin V and PI after treatment with various concentrations of DMC-HA.

[6] = Hepatic microsome stability assay, human; assay type: in vitro ADME; conditions: human liver microsomes, NADPH, 37°C, pH 7.4
Experimental: (§2) Metabolic stability was assessed in the presence of human, mouse, and rat liver microsomes (XenoTech, Lenexa, KS, USA). All liquid dispenses and transfer steps were performed with the Freedom Evo automated liquid handler (Tecan US). Compound stock solutions were initially prepared in 100% DMSO and subsequently diluted in acetonitrile for the assay. The pH of the reactions was kept at 7.4 with potassium phosphate buffer. The reaction wells were prepared by adding microsomes to a well and allowed to warm to 37°C. Then, compound was added to each well. The reactions were […] by adding cofactor reduced nicotinamide adenine dinucleotide phosphate (NADPH) to the reaction well containing microsomes and compounds. Negative controls received buffer only. Immediately after reactions started, 0-min aliquots were promptly collected and mixed in a separate well with ice cold acetonitrile to quench the reactions. The remainder of the reaction volume was incubated at 37°C with shaking. An additional aliquot was collected at 60 min after the start of the reaction and promptly quenched with ice cold acetonitrile. Samples were vortexed and centrifuged at 3,500 rpm for 10 min. The amount of compound in the supernatant was determined by liquid chromatography–tandem mass spectrometry (LC/MS/MS) (Thermo Fischer Scientific, San Jose, CA, USA), and the percent of parent compound remaining after 60 min was calculated. Results are the mean of each reaction triplicate, normalized to the internal standard, and expressed as the percent of compound remaining after the incubation time.
(§3) Structures that are active in vitro may not be potent in vivo due to their susceptibility to metabolism in the body. We then thoroughly examined the liver microsomal metabolic stability of DMC-HA across three different species (Table 3). […] In addition, the half-life of DMC-HA in human microsome is generally two to three times longer than those in mice and rats. Collectively, the in vitro liver microsomal stability of DMC-HA is favorable, guaranteeing its further in vivo studies.

[7] = Hepatic microsome stability assay, rat; assay type: in vitro ADME; conditions: rat liver microsomes, NADPH, 37°C, pH 7.4
Experimental: as §2, §3

U87 tumor xenograft = conditions: nude mice, 20 mg/kg once daily
From the text: Six-week-old BALB/c nude mice were purchased from Shanghai Experimental Animal Center of Chinese Academy of Science (Shanghai, China). All animal protocols were implemented according to the guidelines of the Association for Assessment and Accreditation of Laboratory Animal Care. U87 cells (3 × 10^6) were subcutaneously implanted into the right flank of mice. After 6 days of tumor growth, tumors grew to approximately 100 mm^3, and mice were randomly divided into three groups with nine animals in each group. […] The control group was intraperitoneally injected an equal volume of DMSO. Body weights and tumor volumes were measured every 2 days. After treatment, all of the mice were sacrificed, and the tumors were harvested, weighted, and photographed. The tumor volume was calculated according the formula: tumor volume = (length × width^2)/2.
U87 cells were subcutaneously inoculated into the right flank of mice.

HDAC1 = HDAC1 (Homo sapiens, UniProt Q13547); assay: HDACs inhibition assay, HDAC1
HDAC1, sequence (Q13547 whole entry): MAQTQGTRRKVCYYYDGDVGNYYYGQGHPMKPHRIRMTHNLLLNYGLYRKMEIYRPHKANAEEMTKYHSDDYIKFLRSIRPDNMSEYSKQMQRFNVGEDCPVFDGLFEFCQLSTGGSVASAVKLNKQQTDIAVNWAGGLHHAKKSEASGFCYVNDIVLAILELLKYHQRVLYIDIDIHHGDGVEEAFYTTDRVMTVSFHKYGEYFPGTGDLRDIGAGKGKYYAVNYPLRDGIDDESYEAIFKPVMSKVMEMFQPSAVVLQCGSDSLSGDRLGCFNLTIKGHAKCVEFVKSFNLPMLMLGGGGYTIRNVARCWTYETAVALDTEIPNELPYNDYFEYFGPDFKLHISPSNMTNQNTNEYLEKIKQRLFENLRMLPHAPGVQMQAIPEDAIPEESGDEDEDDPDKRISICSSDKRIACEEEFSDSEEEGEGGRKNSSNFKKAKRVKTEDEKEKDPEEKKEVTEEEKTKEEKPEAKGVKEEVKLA
Experimental: (§4) The inhibition assays for HDACs were carried out according to standard protocols. […] The reaction was stopped by the addition of 45 μl of 100 mM HEPES (pH 7.5) and 0.08% sodium dodecyl sulfate (SDS). The substrate and the product were then separated electrophoretically using a LabChip 3000 system (Caliper Life Sciences, Hopkinton, MA) with blue laser excitation and green fluorescence detection.

HDAC6 = HDAC6 (Homo sapiens, UniProt Q9UBN7); assay: HDACs inhibition assay, HDAC6
HDAC6, sequence (Q9UBN7 whole entry): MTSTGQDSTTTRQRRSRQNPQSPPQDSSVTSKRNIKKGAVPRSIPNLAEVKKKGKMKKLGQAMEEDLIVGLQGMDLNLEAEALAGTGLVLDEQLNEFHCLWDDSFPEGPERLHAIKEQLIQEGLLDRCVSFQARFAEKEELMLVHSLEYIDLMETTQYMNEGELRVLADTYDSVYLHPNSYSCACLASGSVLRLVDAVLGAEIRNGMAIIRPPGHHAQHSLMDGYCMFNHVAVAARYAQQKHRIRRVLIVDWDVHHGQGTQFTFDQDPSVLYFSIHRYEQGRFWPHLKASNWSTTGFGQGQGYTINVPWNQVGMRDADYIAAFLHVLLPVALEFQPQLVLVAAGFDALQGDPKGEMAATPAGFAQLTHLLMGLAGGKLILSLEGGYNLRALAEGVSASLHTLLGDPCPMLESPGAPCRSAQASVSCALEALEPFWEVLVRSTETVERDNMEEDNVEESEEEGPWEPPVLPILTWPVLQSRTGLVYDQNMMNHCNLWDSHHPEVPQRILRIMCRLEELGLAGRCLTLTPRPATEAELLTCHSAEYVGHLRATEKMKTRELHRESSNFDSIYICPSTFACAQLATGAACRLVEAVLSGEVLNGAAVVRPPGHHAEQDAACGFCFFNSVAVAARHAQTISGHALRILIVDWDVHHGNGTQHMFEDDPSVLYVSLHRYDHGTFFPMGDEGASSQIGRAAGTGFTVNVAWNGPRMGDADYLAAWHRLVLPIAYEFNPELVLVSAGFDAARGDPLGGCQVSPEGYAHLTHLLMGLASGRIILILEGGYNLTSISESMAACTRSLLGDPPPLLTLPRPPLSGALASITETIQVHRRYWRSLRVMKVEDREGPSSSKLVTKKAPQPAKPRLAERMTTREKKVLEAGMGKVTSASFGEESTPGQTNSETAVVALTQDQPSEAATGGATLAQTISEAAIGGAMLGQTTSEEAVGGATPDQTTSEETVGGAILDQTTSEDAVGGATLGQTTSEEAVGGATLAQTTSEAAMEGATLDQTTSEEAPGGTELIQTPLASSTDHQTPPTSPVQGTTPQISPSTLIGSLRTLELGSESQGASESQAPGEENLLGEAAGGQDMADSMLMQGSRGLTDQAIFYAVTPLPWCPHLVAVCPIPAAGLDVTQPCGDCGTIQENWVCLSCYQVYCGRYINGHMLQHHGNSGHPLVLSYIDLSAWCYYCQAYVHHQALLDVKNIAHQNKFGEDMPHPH
Experimental: as §4

HDAC8 = HDAC8 (Homo sapiens, UniProt Q9BY41); assay: HDACs inhibition assay, HDAC8
HDAC8, sequence (Q9BY41 whole entry): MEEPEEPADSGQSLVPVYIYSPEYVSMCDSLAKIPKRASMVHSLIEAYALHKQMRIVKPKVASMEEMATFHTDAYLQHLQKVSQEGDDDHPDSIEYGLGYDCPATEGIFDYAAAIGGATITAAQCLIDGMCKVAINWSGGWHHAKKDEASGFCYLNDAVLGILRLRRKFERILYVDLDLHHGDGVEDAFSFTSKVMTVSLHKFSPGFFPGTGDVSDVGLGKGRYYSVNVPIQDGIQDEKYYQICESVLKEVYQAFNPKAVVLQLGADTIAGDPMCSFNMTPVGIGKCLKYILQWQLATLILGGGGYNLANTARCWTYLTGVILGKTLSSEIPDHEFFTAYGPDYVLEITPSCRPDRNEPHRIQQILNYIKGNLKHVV
Experimental: as §4

HDAC10 = HDAC10 (Homo sapiens, UniProt Q969S8); assay: HDACs inhibition assay, HDAC10
HDAC10, sequence (Q969S8 whole entry): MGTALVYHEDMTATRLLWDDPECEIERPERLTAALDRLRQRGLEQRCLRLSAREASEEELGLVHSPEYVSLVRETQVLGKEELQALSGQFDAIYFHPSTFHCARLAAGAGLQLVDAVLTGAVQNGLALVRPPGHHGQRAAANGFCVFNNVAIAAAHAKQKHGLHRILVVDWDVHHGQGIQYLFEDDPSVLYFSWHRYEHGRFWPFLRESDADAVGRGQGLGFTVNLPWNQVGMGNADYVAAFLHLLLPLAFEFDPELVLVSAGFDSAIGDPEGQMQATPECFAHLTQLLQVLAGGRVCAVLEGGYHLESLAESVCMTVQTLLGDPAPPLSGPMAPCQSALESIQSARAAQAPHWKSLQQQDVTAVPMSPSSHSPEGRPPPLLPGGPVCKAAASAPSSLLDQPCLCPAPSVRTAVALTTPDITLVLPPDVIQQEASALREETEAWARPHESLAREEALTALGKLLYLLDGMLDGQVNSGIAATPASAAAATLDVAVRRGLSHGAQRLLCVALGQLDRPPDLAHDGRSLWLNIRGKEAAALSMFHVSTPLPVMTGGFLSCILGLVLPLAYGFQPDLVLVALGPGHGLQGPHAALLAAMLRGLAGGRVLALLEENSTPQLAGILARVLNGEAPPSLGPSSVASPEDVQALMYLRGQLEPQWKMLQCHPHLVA
Experimental: as §4

HDAC11 = HDAC11 (Homo sapiens, UniProt Q96DB2); assay: HDACs inhibition assay, HDAC11
HDAC11, sequence (Q96DB2 whole entry): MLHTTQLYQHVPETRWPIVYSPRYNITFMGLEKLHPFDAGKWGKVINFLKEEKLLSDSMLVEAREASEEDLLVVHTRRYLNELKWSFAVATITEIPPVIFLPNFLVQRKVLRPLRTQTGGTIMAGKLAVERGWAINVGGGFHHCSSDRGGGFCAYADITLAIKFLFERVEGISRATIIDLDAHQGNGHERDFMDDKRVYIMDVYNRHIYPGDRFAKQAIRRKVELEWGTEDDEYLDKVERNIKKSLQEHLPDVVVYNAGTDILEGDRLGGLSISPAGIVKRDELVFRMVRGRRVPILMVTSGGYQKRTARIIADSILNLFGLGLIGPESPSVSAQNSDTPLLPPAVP
Experimental: as §4

## COc1cc(/C=C/C(=O)CC(=O)/C=C/c2ccc(/C=C/C(=O)NO)cc2)ccc1O [DMC-HA]
[1]
  IC50: 1950 ± 710 nM
[2]
  IC50: 2990 ± 480 nM
[3]
  IC50: 2780 ± 810 nM
[4]
  IC50: 4620 ± 720 nM
[5]
  IC50: 3380 ± 290 nM
U87 cells
  total apoptotic cells: 90.0%
[6]
  Human Liver Microsomal Stability T1/2: 1.53 h
  microsomal CLint: 17.5 µL/min/mg
[7]
  Rat Liver Microsomal Stability T1/2: 0.678 h
  microsomal CLint: 34.2 µL/min/mg
U87 tumor xenograft
  effects on the body weight: no effects on the body weight
  toxicity during the administration period: no observable toxicity
U87 tumor xenograft; compared with controls
  tumor weight: significantly lower tumor weight
U87 tumor xenograft; oral route / intraperitoneal, vs. control
  inhibition on the tumor volume: 52.1%
HDAC1
  IC50: 510 nM
HDAC6
  IC50: 380 nM
HDAC8
  IC50: 2930 nM
HDAC10
  IC50: 8390 nM
HDAC11
  IC50: > 10000 nM
